In PubChem BioAssay AID179 (DTP/NCI, 2004):
Calls of active or inactive are those of the source.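 Rule for the calls: active = compounds giving half or more protection of infected cells from virus-caused growth loss, again on retest; inactive = the rest.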 Where a SMILES comes first, the peptide text is derived from it. [ ]: non-standard residue; d: D form. The star is where a group is joined. ξ: configuration not given here. Boc = CC(C)(C)OC(=O)*; OBn = c1ccc(CO*)cc1; ξP = O=C(O)C1CCCN1

Tested on: CEM cells HIV-1 protection, formazan growth assay
Assay: NCI AIDS Antiviral Assay
Conditions: for IC50: measured here: growth of uninfected CEM cells
Procedure, shortened: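 Soluble formazan readout of cell growth; CEM cells ± HIV-1; 5 drug concs. ≥50% protection → retest; ≥50% again = moderately active; reproducible 100% = confirmed active.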

SMILES | EC50 | IC50 | outcome
CC(C)(C)c1cc(-c2c3nc(c(-c4cc(C(C)(C)C)cc(C(C)(C)C)c4)c4ccc([nH]4)c(-c4cc(C(C)(C)C)cc(C(C)(C)C)c4)c4nc(c(-c5cc(C(C)(C)C)cc(C(C)(C)C)c5)c5ccc2[nH]5)C=C4)C=C3)cc(C(C)(C)C)c1 | > 33.9 µM | > 33.9 µM | –
COc1cc2c(c([N+](=O)[O-])c1)NC(=O)CCS2 | – | – | inactive
CCOC(=O)Cc1cc(=O)oc2c3c(cc(OC(C)C)c12)O[C@H](C)[C@@H](C)C3=O | > 200 µM | 195 µM | –
COc1ccc(C2SC(N)=Nc3c2c(C)nn3C(=O)c2ccc(Cl)cc2)cc1OC (stereo unspecified) | > 200 µM | > 200 µM | –
COc1cc(Cl)c2c3c(c(C(C)=O)oc13)CCC2 | – | – | inactive
Cc1ccc(S(=O)(=O)Nn2c(-c3ccccc3)c(C#N)c(-c3ccc(Cl)cc3)c(C#N)c2=O)cc1 | > 200 µM | 38.9 µM | –
CN(C)CC1CCC/C1=N/OC(=O)c1ccccc1 (stereo unspecified) | – | – | inactive
CCOC(=O)c1cc(NC(=O)N(CCC#N)CCN(C(=O)N[C@@H](Cc2ccccc2)C(=O)N[C@@H](CC(C)C)C(=O)NC)c2ccccc2)ccc1OC | > 200 µM | 29.5 µM | –
CC1(C)N=C(/C(Cl)=[N+](/[O-])C(=O)c2ccc(Cl)cc2)C(C)(C)N1O | > 100 µM | 8.91 µM | –
CCCCCC=C(c1ccc(OC)c(C(=O)OC)c1)c1ccc(OC)c(C(=O)OC)c1 | > 200 µM | 27.5 µM | –
Cc1ccc(-c2cc(-c3ccco3)c(C#N)c(=O)n2C2OC(OC(=O)c3ccccc3)C(OC(=O)c3ccccc3)C2OC(=O)c2ccccc2)cc1 (stereo unspecified) | > 10.2 µM | > 10.2 µM | –
CCOC(=O)C1=CCC2c3[nH]c4ccccc4c3CCN2C1=O (stereo unspecified) | > 16.2 µM | 9.12 µM | –
N=c1oc2cc(O)ccc2cc1C(=O)NCc1ccccc1 | > 200 µM | 20 µM | –
Cc1sc2c(c1C)C(=O)c1cccn1-2 | > 200 µM | 170 µM | –
CCOC(=O)C1=C(C)NC(=O)NC1c1ccc(OC)cc1OC (stereo unspecified) | > 30.9 µM | > 30.9 µM | –
COc1ccccc1N=C1SCC(=O)N1Cc1ccco1 | > 135 µM | 89.1 µM | –
O=c1[nH]cnc2c1ncn2CCCCO | – | – | inactive
C=CCc1ccccc1OP(=O)(Oc1ccc(C(C)(C)C)cc1)Oc1ccc(C(C)(C)C)cc1 | – | – | inactive
Cc1ccc(OCC2OC(n3cnc4nc(Cl)nc(Cl)c43)CC2Oc2ccc(C)cc2)cc1 (stereo unspecified) | > 200 µM | 1.48 µM | –
COc1ccc(N2C(=O)[C@@H]3[C@H](C2=O)c2[nH]c4ccccc4c2C2CCC(C(C)(C)C)C[C@@H]23)cc1 (stereo partly specified) | > 28.2 µM | > 28.2 µM | –
O=C(O)c1cccc(-c2c3ccc(=O)cc-3oc3cc(O)ccc23)c1 | > 316 µM | 53.7 µM | –
O=C(O)CCCC(=O)Nn1c(Cc2ccc(Cl)cc2)n[nH]c1=O | > 200 µM | > 200 µM | –

SMILES | EC50 | IC50 | outcome
O=C1NC2(CCCCC2)C2CCCCCC12 (stereo unspecified) | – | – | inactive
CC(=O)CC(C)(C)S(=O)(=O)O | > 200 µM | > 200 µM | –
COc1cc2cc(C(=O)N3CC(CCl)c4c3cc([N+](=O)[O-])c3ccccc43)[nH]c2c(OC)c1OC (stereo unspecified) | > 10 µM | 2.4 µM | –
CC(O)C1(CNc2cc(Cl)nc(N)n2)CC(CCc2ccccc2)C1 (stereo unspecified) | > 20 µM | 7.76 µM | –
O=C(O)CC(c1ccccc1)C(CC(=O)O)c1ccccc1 (stereo unspecified) | > 437 µM | > 437 µM | –
CCCCCc1cc(CCCC)sc1-c1ccco1 | > 200 µM | 145 µM | –
Cc1ccsc1C(=O)C(CC(=O)c1cccs1)c1ccsc1 (stereo unspecified) | – | – | inactive
CC(C)(C)OC(=O)N[C@@H](Cc1ccccc1)C(=O)N1CCCC1C(=O)OCc1ccccc1 (stereo partly drawn) (Boc-Phe-[ξP]-OBn) | > 41.7 µM | > 41.7 µM | –
N[C@@H](C[S-])C(=O)O.O=[N+]([O-])O.[Ag+] | > 200 µM | 126 µM | –
O[C@]12CCCC[C@H]1CCC2 | – | – | inactive
Nc1ccc2c3c1cccc3c(=O)n1c3ccc(Cc4ccc5c(c4)nc4c6ccc(N)c7cccc(c(=O)n54)c76)cc3nc21 | > 100 µM | – | –
C(/C=C\c1ccccc1)=Nc1ccccc1 | > 34.7 µM | > 34.7 µM | –
Cn1cc(N)cc1C(=O)Nc1cc(C(=O)Nc2ccc3cc(S(=O)(=O)O)cc(S(=O)(=O)O)c3c2)n(C)n1 | 18.2 µM | > 100 µM | –
COC(=O)C(CCC1(C)OCCO1)C(C)=O (stereo unspecified) | 31.6 µM | 251 µM | –
CCN(CC)C(=O)COc1cc2c(O)c3c(O)c(C)c4c(c13)C(=O)C(C)(OC=CC(OC)C(C)C(OC(C)=O)C(C)C(O)C(C)C(O)C(C)C=CC=C(C)C(=O)N2)O4 (stereo unspecified) | > 155 µM | > 100 µM | –
O=c1/c(=C/c2ccccc2[N+](=O)[O-])sc2nnc(-c3ccco3)n12 | > 29.5 µM | > 29.5 µM | –
O=C(c1ccccc1)N1CCc2c([nH]c3ccccc23)C1 | – | – | inactive
O=c1nc2n(cc1/C=C\Br)C1CC(O)C(CO2)O1 (stereo unspecified) | – | – | inactive
Cc1cc(Cl)ccc1NC(=O)CC1SC(N)=NC1=O (stereo unspecified) | > 832 µM | > 832 µM | –
ClC1CCC2OOC1O2 (stereo unspecified) | – | – | inactive
CN1C(=O)N(C)C2(CCN(CCCCCCF)CC2)C1=O | > 200 µM | > 200 µM | –
C=CCN(N=O)C(=O)NCCCC(NC(C)=O)C(=O)NCc1ccccc1 (stereo unspecified) | > 661 µM | > 661 µM | –

SMILES | EC50 | IC50 | outcome
O=C(COc1ccc(OCC(=O)N2C(=O)CSC2=Nc2ccccc2)cc1)N1C(=O)CSC1=Nc1ccccc1 | > 200 µM | 25.7 µM | –
Cc1n(CC(C)C)c2c([n+]1CC(=O)c1ccc([N+](=O)[O-])cc1)C(=O)c1ccccc1C2=O | > 4.9 µM | 0.0288 µM | –
O=C(/C=C/c1ccsc1)c1cccs1 | > 200 µM | 3.55 µM | –
O=[N+]([O-])c1cccc2nccc(NCCN3CCOCC3)c12 | > 200 µM | 10 µM | –
O=C1C2c3[nH]c4ccccc4c3C3CCCC3C2C(=O)N1c1ccccc1 (stereo unspecified) | – | – | inactive
CCN=C(NC(=O)c1c(Cl)cccc1Cl)SCSC(=NCC)NC(=O)c1c(Cl)cccc1Cl | > 200 µM | 170 µM | –
COc1ccccc1C1OC(c2ccccc2OC)C2CCN(C)C2(C)O1 (stereo unspecified) | > 200 µM | > 200 µM | –
Cc1ccc(S(=O)(=O)OC2C3CC4C(=O)OC2C4C3)cc1 (stereo unspecified) | 126 µM | > 200 µM | –
CCC[CH2][Ge]([CH2]CCC)([CH2]CCC)[O]C(=O)C(OC(C)=O)c1ccccc1 (stereo unspecified) | > 151 µM | 4.27 µM | –
COc1ccc(C2S/C(=C\c3ccc([N+](=O)[O-])cc3)C(=O)N2NC(=O)Cc2ccccc2)cc1 (stereo unspecified) | > 55 µM | > 55 µM | –
Cn1c2ccccc2n2c3ncccc3c(=NCCCC(=O)O)c(C#N)c12 | > 200 µM | > 200 µM | –
Cn1ccnc1.[O-][Cl+3]([O-])([O-])[O-].[Pt+2].c1ccc(-c2cccc(-c3ccccn3)n2)nc1 | > 200 µM | 13.5 µM | –
COc1ccc(-n2sc3ncccc3c2=O)cc1 | > 18.2 µM | 6.03 µM | –
O=C1[C@@H]2C3c4ccccc4C([C@@H]2C(=O)N1c1ccccc1)S3(=O)=O | – | – | inactive
OC1OC(c2ccco2)C(F)(F)C(F)(F)C1(F)F (stereo unspecified) | > 200 µM | 102 µM | –
CCc1n[nH]c(=O)n1N1C(=O)C2CC=CCC2C1=O (stereo unspecified) | > 200 µM | > 200 µM | –
O=C1NC(=O)C(Cc2ccccc2Cl)N1 (stereo unspecified) | > 200 µM | > 200 µM | –
COc1ncnc2c1ncn2C1OC(CO)CC1F (stereo unspecified) | > 186 µM | > 186 µM | –
CCC[CH2][Sn]([CH2]CCC)([O]C(=O)c1cc(F)cc(F)c1)[O][Sn]([CH2]CCC)([CH2]CCC)[O]C(=O)c1cc(F)cc(F)c1 | > 9.12 µM | 1.78 µM | –
CCCCCCCCCCCC1=C(O)C(=O)C(CC2=C(O)C(=O)C(CCCCCCCCCCC)=C(O)C2=O)=C(O)C1=O | > 20 µM | > 20 µM | –
COc1ccccc1NC(=S)N/N=C/c1c(C)n(C)n(-c2ccccc2)c1=O | > 200 µM | 64.6 µM | –
CCOC(=O)c1sc(SC)nc1N | > 200 µM | > 200 µM | –

SMILES | EC50 | IC50 | outcome
Cc1nn(C(=O)c2ccc(Cl)cc2)c2c1C(c1ccccc1)SC(N)=N2 (stereo unspecified) | – | – | inactive
O=[N+]([O-])c1cc(Cl)ccc1S(=O)(=O)c1ccc(Cl)cc1[N+](=O)[O-] | – | – | inactive
CC(CN(C)C)C(=O)c1ccccc1 (stereo unspecified) | > 912 µM | 55 µM | –
CC(=O)Nc1c(C(=O)O)[nH]c(=O)[nH]c1=O | > 200 µM | > 200 µM | –
Cc1cn(C2C[C@H](O)[C@]3(CO)C[C@H]23)c(=O)[nH]c1=O (stereo partly specified) | > 100 µM | > 100 µM | –
CC(C)OP(=O)(OC(C)C)/C(C#N)=C/c1c[nH]c2ccccc12 | > 200 µM | > 200 µM | –
Cc1c2c(n(Cc3ccccn3)c1C)NN=C(C#N)S2(=O)=O | > 200 µM | > 200 µM | –
Cc1nc(C)c(C(=O)NNC(=O)C[n+]2ccccc2)cc1C(=O)NNC(=O)C[n+]1ccccc1 | > 200 µM | > 200 µM | –
COc1ccc2c(c1)C(=O)CC(c1ccccc1)O2 (stereo unspecified) | > 200 µM | > 200 µM | –
Cn1ccc(C(=O)NCCN(CCNC(=O)c2ccn(C)c(=O)c2O)CCNC(=O)c2cccc(=O)n2O)c(O)c1=O | > 200 µM | > 200 µM | –
Cc1ccc(C2SCC(=O)N2NC(=O)c2ccncc2)s1 (stereo unspecified) | > 200 µM | > 200 µM | –
Cc1cc(Cl)c(=O)n(-c2ccccc2)n1 | > 162 µM | > 162 µM | –
CN(C)c1ccc(/C=C2\C=Nc3ccccc32)cc1 | > 20.9 µM | 14.1 µM | –
COc1ccc2nc(N/N=C/c3sccc3C)cc(C)c2c1 | > 200 µM | 17.4 µM | –
[Co].[O-]c1cccnc1C=Nc1ccccc1.[OH3+] | > 240 µM | 35.5 µM | –
CON[C@@H]1C[C@H](n2cc(C)c(=O)[nH]c2=O)O[C@@H]1CO[Si](C)(C)C(C)(C)C | > 200 µM | 107 µM | –
COc1cc(Cc2cnc(N)nc2N)cc(OC)c1OCCCNc1ccc([N+](=O)[O-])cc1 | – | – | inactive
NC(C(F)(F)F)(C(F)(F)F)P(=O)(c1ccccc1)c1ccccc1 | > 200 µM | > 200 µM | –
CCC(Oc1ccc(OC)c2c1C(=O)CCC2)C(=O)O (stereo unspecified) | – | – | inactive
CC(C#N)N(CCc1ccccc1)C(=O)c1ccccc1 (stereo unspecified) | > 200 µM | > 200 µM | –
CCOP(=O)(OCC)/C(C#N)=C/c1ccnc2ccccc12 | > 200 µM | 11.2 µM | –
